Paper PMC5218480 (PLoS ONE, 2017)

Tested on: MV-4-11 cells
Assay: Gene expression microarray analysis (Affymetrix PrimeView) and GSEA
Type: cell-based, human
Design: RFU PODN (11730768_x_at) / Fold change /veh PODN (11730768_x_at) / RFU LINC00158 (11744669_a_at) / Fold change /veh LINC00158 (11744669_a_at) / RFU DUSP10 (11751237_a_at) / Fold change /veh DUSP10 (11751237_a_at) / RFU ID3 (11757404_x_at) / Fold change /veh ID3 (11757404_x_at) / RFU PLEKHG5 (11737974_s_at) / Fold change /veh PLEKHG5 (11737974_s_at) / RFU LRRC4B (11730491_at) / Fold change /veh LRRC4B (11730491_at) / RFU GIMAP4 (11747438_a_at) / Fold change /veh GIMAP4 (11747438_a_at) / RFU KRT8 (11758183_x_at) / Fold change /veh KRT8 (11758183_x_at) / RFU CNN1 (11734310_a_at) / Fold change /veh CNN1 (11734310_a_at) / RFU VPS37D (11726825_at) / Fold change /veh VPS37D (11726825_at) / RFU C10orf10 (11716522_x_at) / Fold change /veh C10orf10 (11716522_x_at) / RFU KIR2DL2 /// KIR2DL4 /// KIR2DL5A /// KIR2DL5B /// KIR2DS1 /// KIR2DS2 /// KIR2DS3 /// KIR2DS4 /// KIR3DL3 /// KIR3DL3 /// KIR3DS1 (11738374_at) / Fold change /veh KIR2DL2 /// KIR2DL4 /// KIR2DL5A /// KIR2DL5B /// KIR2DS1 /// KIR2DS2 /// KIR2DS3 /// KIR2DS4 /// KIR3DL3 /// KIR3DL3 /// KIR3DS1 (11738374_at) / RFU C1QL1 (11718748_at) / Fold change /veh C1QL1 (11718748_at) / RFU TMPRSS4 (11747572_a_at) / Fold change /veh TMPRSS4 (11747572_a_at) / RFU HAMP (11756126_x_at) / Fold change /veh HAMP (11756126_x_at) / RFU RNFT2 (11725882_a_at) / Fold change /veh RNFT2 (11725882_a_at) / RFU NR4A2 (11747474_a_at) / Fold change /veh NR4A2 (11747474_a_at) / RFU ABCC12 (11746883_a_at) / Fold change /veh ABCC12 (11746883_a_at) / RFU TMEM136 (11760407_x_at) / Fold change /veh TMEM136 (11760407_x_at) / RFU CLDN22 /// WWC2 (11732394_at) / Fold change /veh CLDN22 /// WWC2 (11732394_at) / RFU HLA-DPB1 (11760878_x_at) / Fold change /veh HLA-DPB1 (11760878_x_at) / RFU SPINT1 (11716480_a_at) / Fold change /veh SPINT1 (11716480_a_at) / RFU GAP43 (11754022_s_at) / Fold change /veh GAP43 (11754022_s_at) / RFU A4GNT (11735810_at) / Fold change /veh A4GNT (11735810_at) / RFU PRB3 (11715151_x_at) / Fold change /veh PRB3 (11715151_x_at) / RFU TUBB4B (11761932_at) / Fold change /veh TUBB4B (11761932_at) / RFU CAPN14 (11732068_a_at) / Fold change /veh CAPN14 (11732068_a_at) / RFU TMCC2 (11721928_a_at) / Fold change /veh TMCC2 (11721928_a_at) / RFU IRGQ (11745062_a_at) / Fold change /veh IRGQ (11745062_a_at) / RFU FAM174B (11720279_a_at) / Fold change /veh FAM174B (11720279_a_at) / RFU TMPRSS4 (11748680_a_at) / Fold change /veh TMPRSS4 (11748680_a_at) / RFU FAM212B (11763350_a_at) / Fold change /veh FAM212B (11763350_a_at) / RFU PLEKHG5 (11743358_a_at) / Fold change /veh PLEKHG5 (11743358_a_at) / RFU ZSCAN30 (11745921_a_at) / Fold change /veh ZSCAN30 (11745921_a_at) / RFU CMKLR1 (11741424_a_at) / Fold change /veh CMKLR1 (11741424_a_at) / RFU LOC101060620 /// MAPK8IP1 (11723275_at) / Fold change /veh LOC101060620 /// MAPK8IP1 (11723275_at) / RFU SPTSSB (11747773_x_at) / Fold change /veh SPTSSB (11747773_x_at) / RFU PRSS12 (11739890_at) / Fold change /veh PRSS12 (11739890_at) / RFU BIN1 (11741810_x_at) / Fold change /veh BIN1 (11741810_x_at) / RFU WNT11 (11732464_a_at) / Fold change /veh WNT11 (11732464_a_at) / RFU C10orf10 (11716521_a_at) / Fold change /veh C10orf10 (11716521_a_at) / RFU C5orf56 (11738089_at) / Fold change /veh C5orf56 (11738089_at) / RFU CYB561 (11721691_x_at) / Fold change /veh CYB561 (11721691_x_at) / RFU ANKRD19P (11752326_a_at) / Fold change /veh ANKRD19P (11752326_a_at) / RFU OR2T12 /// OR2T33 /// OR2T8 (11738714_s_at) / Fold change /veh OR2T12 /// OR2T33 /// OR2T8 (11738714_s_at) / RFU VCAN (11748164_a_at) / Fold change /veh VCAN (11748164_a_at) / RFU JSRP1 (11732532_at) / Fold change /veh JSRP1 (11732532_at) / RFU KRTAP10-11 (11738290_x_at) / Fold change /veh KRTAP10-11 (11738290_x_at) / RFU MYO3A (11730013_a_at) / Fold change /veh MYO3A (11730013_a_at) / RFU EBF3 (11725865_a_at) / Fold change /veh EBF3 (11725865_a_at) / RFU CAMK2N1 (11719241_x_at) / Fold change /veh CAMK2N1 (11719241_x_at) / RFU C5orf56 (11738088_a_at) / Fold change /veh C5orf56 (11738088_a_at) / RFU OLFML3 (11715873_a_at) / Fold change /veh OLFML3 (11715873_a_at) / RFU LOC100653217 /// NTM (11731650_a_at) / Fold change /veh LOC100653217 /// NTM (11731650_a_at) / RFU MAPK11 (11762145_a_at) / Fold change /veh MAPK11 (11762145_a_at) / RFU FIZ1 (11724087_x_at) / Fold change /veh FIZ1 (11724087_x_at) / RFU OASL (11726364_x_at) / Fold change /veh OASL (11726364_x_at) / RFU SOX15 (11748057_x_at) / Fold change /veh SOX15 (11748057_x_at) / RFU CD79A (11719716_a_at) / Fold change /veh CD79A (11719716_a_at) / RFU HIST1H1D (11736915_at) / Fold change /veh HIST1H1D (11736915_at) / RFU CASKIN2 (11723855_a_at) / Fold change /veh CASKIN2 (11723855_a_at) / RFU LOC730098 (11760151_x_at) / Fold change /veh LOC730098 (11760151_x_at) / RFU OR4N2 (11742367_at) / Fold change /veh OR4N2 (11742367_at) / RFU PRRT2 (11749266_a_at) / Fold change /veh PRRT2 (11749266_a_at) / RFU SNX32 (11753110_a_at) / Fold change /veh SNX32 (11753110_a_at) / RFU CDHR5 (11726645_a_at) / Fold change /veh CDHR5 (11726645_a_at) / RFU RCAN1 (11760418_a_at) / Fold change /veh RCAN1 (11760418_a_at) / RFU FAM167A (11723789_a_at) / Fold change /veh FAM167A (11723789_a_at) / RFU FAM26E (11764081_at) / Fold change /veh FAM26E (11764081_at) / RFU ISYNA1 (11749810_s_at) / Fold change /veh ISYNA1 (11749810_s_at) / RFU ACY1 (11761880_at) / Fold change /veh ACY1 (11761880_at) / RFU 11764098_at / Fold change /veh 11764098_at / RFU SAMD14 (11745864_x_at) / Fold change /veh SAMD14 (11745864_x_at) / RFU NPB (11741838_a_at) / Fold change /veh NPB (11741838_a_at) / RFU TMPRSS6 (11731388_a_at) / Fold change /veh TMPRSS6 (11731388_a_at) / RFU KRTAP10-2 (11738614_at) / Fold change /veh KRTAP10-2 (11738614_at) / RFU ARHGAP8 /// PRR5-ARHGAP8 (11727945_x_at) / Fold change /veh ARHGAP8 /// PRR5-ARHGAP8 (11727945_x_at) / RFU KRTAP5-7 /// NADSYN1 (11734609_at) / Fold change /veh KRTAP5-7 /// NADSYN1 (11734609_at) / RFU RASL12 (11751679_a_at) / Fold change /veh RASL12 (11751679_a_at) / RFU CDKN2B (11736163_a_at) / Fold change /veh CDKN2B (11736163_a_at) / RFU PRF1 (11729649_at) / Fold change /veh PRF1 (11729649_at) / RFU, ZNF638 /// ZNF638-IT1 / Fold change vs veh, ZNF638 /// ZNF638-IT1 / RFU, PANK3 / Fold change vs veh, PANK3 / RFU, SH3YL1 / Fold change vs veh, SH3YL1 / RFU, ZEB2 / Fold change vs veh, ZEB2 / RFU, NRIP1 / Fold change vs veh, NRIP1 / RFU, PTTG1IP / Fold change vs veh, PTTG1IP / RFU, CAPN2 / Fold change vs veh, CAPN2 / RFU, MED14 / Fold change vs veh, MED14 / RFU, SNORA58 / Fold change vs veh, SNORA58 / RFU, C1orf63 / Fold change vs veh, C1orf63 / RFU, LRRFIP1 / Fold change vs veh, LRRFIP1 / RFU, NDUFAF7 / Fold change vs veh, NDUFAF7 / RFU, SLC12A2 / Fold change vs veh, SLC12A2 / RFU, IBTK / Fold change vs veh, IBTK / RFU, ESF1 / Fold change vs veh, ESF1 / Fold change vs veh, TMEM50B / RFU, TAOK1 / Fold change vs veh, TAOK1 / RFU, ACBD3 / Fold change vs veh, ACBD3 / RFU, TMA16 / Fold change vs veh, TMA16 / RFU, RWDD3 / Fold change vs veh, RWDD3 / RFU, BCAT1 / Fold change vs veh, BCAT1 / RFU, EDEM3 / Fold change vs veh, EDEM3 / RFU, TMEM33 / Fold change vs veh, TMEM33 / RFU, WDR75 / Fold change vs veh, WDR75 / RFU, AHCTF1 / Fold change vs veh, AHCTF1 / RFU, TFRC / Fold change vs veh, TFRC / RFU, ZDHHC17 / Fold change vs veh, ZDHHC17 / RFU, NOM1 / Fold change vs veh, NOM1 / RFU, ARL8B / Fold change vs veh, ARL8B / RFU, ZBTB11 / Fold change vs veh, ZBTB11 / RFU, TAMM41 / Fold change vs veh, TAMM41 / RFU, KIAA1704 /// LOC100996395 / Fold change vs veh, KIAA1704 /// LOC100996395 / RFU, ING1 / Fold change vs veh, ING1 / RFU, TRMT61B / Fold change vs veh, TRMT61B / RFU, FUBP3 / Fold change vs veh, FUBP3 / RFU, TP53 / Fold change vs veh, TP53 / RFU, TNKS2 / Fold change vs veh, TNKS2 / RFU, ZFP14 / Fold change vs veh, ZFP14 / RFU, ACTR2 / Fold change vs veh, ACTR2 / RFU, PPP3R1 / Fold change vs veh, PPP3R1 / RFU, PIK3R1 / Fold change vs veh, PIK3R1 / RFU, HNRNPA1 / Fold change vs veh, HNRNPA1 / RFU, RNF170 / Fold change vs veh, RNF170 / RFU, ZNF28 / Fold change vs veh, ZNF28 / RFU, RNGTT / Fold change vs veh, RNGTT / RFU, OGT / Fold change vs veh, OGT / RFU, BRD1 / Fold change vs veh, BRD1 / RFU, MARS / Fold change vs veh, MARS / RFU, ZNF655 / Fold change vs veh, ZNF655 / RFU, FAHD1 / Fold change vs veh, FAHD1 / RFU, BDP1 / Fold change vs veh, BDP1 / RFU, LRRCC1 / Fold change vs veh, LRRCC1 / RFU, ARID1A / Fold change vs veh, ARID1A / RFU, ZNF146 / Fold change vs veh, ZNF146 / RFU, ZNF330 / Fold change vs veh, ZNF330 / RFU, GPN3 / Fold change vs veh, GPN3 / RFU, C9orf123 / Fold change vs veh, C9orf123 / RFU, N4BP2L2 / Fold change vs veh, N4BP2L2 / RFU, ARFIP1 / Fold change vs veh, ARFIP1 / RFU, FAM179B / Fold change vs veh, FAM179B / RFU, BCL10 / Fold change vs veh, BCL10 / RFU, UHRF1BP1L / Fold change vs veh, UHRF1BP1L / RFU, BET1 / Fold change vs veh, BET1 / RFU, CNOT2 / Fold change vs veh, CNOT2 / RFU, ZNF268 / Fold change vs veh, ZNF268 / Fold change vs veh, ZNF507 / RFU, DGCR2 / Fold change vs veh, DGCR2 / RFU, WDSUB1 / Fold change vs veh, WDSUB1 / Fold change vs veh, HSP90B1 /// MIR3652 / RFU, ADSS / Fold change vs veh, ADSS / RFU, GK / Fold change vs veh, GK / RFU, ZNF148 / Fold change vs veh, ZNF148 / RFU, TAF9 / Fold change vs veh, TAF9 / RFU, SLC1A5 / Fold change vs veh, SLC1A5 / RFU, SLMO2 / Fold change vs veh, SLMO2 / RFU, ABCC4 / Fold change vs veh, ABCC4 / RFU, LOC101060439 /// RAP1B / Fold change vs veh, LOC101060439 /// RAP1B / RFU, RFX7 / Fold change vs veh, RFX7 / RFU, GTPBP10 / Fold change vs veh, GTPBP10 / RFU, CNEP1R1 / Fold change vs veh, CNEP1R1 / RFU, BIVM-ERCC5 /// ERCC5 / Fold change vs veh, BIVM-ERCC5 /// ERCC5 / RFU, ILF3 / Fold change vs veh, ILF3 / RFU 11762660_at / Fold change /veh 11762660_at / RFU VCAN (11757783_s_at) / Fold change /veh VCAN (11757783_s_at) / RFU DDX43 (11728927_at) / Fold change /veh DDX43 (11728927_at) / RFU KRT8 (11758188_x_at) / Fold change /veh KRT8 (11758188_x_at) / RFU NKD1 (11759106_at) / Fold change /veh NKD1 (11759106_at) / RFU SRD5A1 (11742802_a_at) / Fold change /veh SRD5A1 (11742802_a_at) / RFU TPSAB1 /// TPSB2 (11721975_s_at) / Fold change /veh TPSAB1 /// TPSB2 (11721975_s_at) / RFU GSTM3 (11746129_a_at) / Fold change /veh GSTM3 (11746129_a_at) / RFU IL23R (11737362_x_at) / Fold change /veh IL23R (11737362_x_at) / RFU TMEM51 (11727254_a_at) / Fold change /veh TMEM51 (11727254_a_at) / RFU PIWIL2 (11732686_x_at) / Fold change /veh PIWIL2 (11732686_x_at) / RFU ORM1 (11744905_x_at) / Fold change /veh ORM1 (11744905_x_at) / RFU CCDC152 (11743942_at) / Fold change /veh CCDC152 (11743942_at) / RFU ECM1 (11717891_a_at) / Fold change /veh ECM1 (11717891_a_at) / RFU IL23R (11748794_a_at) / Fold change /veh IL23R (11748794_a_at) / RFU TNFAIP8L3 (11732012_x_at) / Fold change /veh TNFAIP8L3 (11732012_x_at) / RFU MBOAT4 (11741988_at) / Fold change /veh MBOAT4 (11741988_at) / RFU 11764193_at / Fold change /veh 11764193_at / RFU TMEM53 (11763286_at) / Fold change /veh TMEM53 (11763286_at) / RFU MAGEB2 (11727129_at) / Fold change /veh MAGEB2 (11727129_at) / RFU TMEM200A (11744735_a_at) / Fold change /veh TMEM200A (11744735_a_at) / RFU CCDC152 (11751479_a_at) / Fold change /veh CCDC152 (11751479_a_at) / RFU FAM211A (11726209_a_at) / Fold change /veh FAM211A (11726209_a_at) / RFU RGS16 (11746705_a_at) / Fold change /veh RGS16 (11746705_a_at) / RFU VCAN (11755009_s_at) / Fold change /veh VCAN (11755009_s_at) / RFU RHOB (11743442_s_at) / Fold change /veh RHOB (11743442_s_at) / RFU RGS16 (11720943_a_at) / Fold change /veh RGS16 (11720943_a_at) / RFU RGS16 (11720944_at) / Fold change /veh RGS16 (11720944_at) / RFU, VPS4B / Fold change vs veh, VPS4B / RFU, CREB1 / Fold change vs veh, CREB1 / RFU, DNAJC13 / Fold change vs veh, DNAJC13 / RFU, GNAQ / Fold change vs veh, GNAQ / RFU, CDK5R1 / Fold change vs veh, CDK5R1 / RFU, ZRANB3 / Fold change vs veh, ZRANB3 / RFU, CUL4A / Fold change vs veh, CUL4A / RFU, CCNY / Fold change vs veh, CCNY / RFU, UFL1 / Fold change vs veh, UFL1 / RFU, COG3 / Fold change vs veh, COG3 / RFU, DIAPH2 / Fold change vs veh, DIAPH2 / RFU, SKA2 / Fold change vs veh, SKA2 / RFU, AFF3 / Fold change vs veh, AFF3 / RFU, LMF1 / Fold change vs veh, LMF1 / RFU, IPO11 / Fold change vs veh, IPO11 / RFU, DFFB / Fold change vs veh, DFFB / RFU, FOXP1 / Fold change vs veh, FOXP1 / RFU, CARD8 / Fold change vs veh, CARD8 / RFU, STRN3 / Fold change vs veh, STRN3 / RFU, ADK / Fold change vs veh, ADK / RFU, RASSF2 / Fold change vs veh, RASSF2 / RFU, WIPF1 / Fold change vs veh, WIPF1 / RFU, LARP1B / Fold change vs veh, LARP1B / RFU, RASA1 / Fold change vs veh, RASA1 / RFU, RB1 / Fold change vs veh, RB1 / RFU, PPFIA1 / Fold change vs veh, PPFIA1 / RFU, MAT2A / Fold change vs veh, MAT2A / RFU, CCT5 / Fold change vs veh, CCT5 / RFU, WDR92 / Fold change vs veh, WDR92 / RFU, CUX1 / Fold change vs veh, CUX1 / RFU, TTC7A / Fold change vs veh, TTC7A / RFU, TMEM135 / Fold change vs veh, TMEM135 / RFU, DEPTOR / Fold change vs veh, DEPTOR / RFU, CPM / Fold change vs veh, CPM / RFU, DNAJB6 / Fold change vs veh, DNAJB6 / RFU, CACNA2D3 / Fold change vs veh, CACNA2D3 / RFU, DTX4 / Fold change vs veh, DTX4 / RFU, TFCP2 / Fold change vs veh, TFCP2 / RFU, GMCL1 /// GMCL1P1 / Fold change vs veh, GMCL1 /// GMCL1P1 / RFU, AEBP2 / Fold change vs veh, AEBP2 / RFU, SNHG1 /// SNORD22 /// SNORD25 /// SNORD26 /// SNORD27 /// SNORD28 /// SNORD29 /// SNORD31 / Fold change vs veh, SNHG1 /// SNORD22 /// SNORD25 /// SNORD26 /// SNORD27 /// SNORD28 /// SNORD29 /// SNORD31 / Fold change (Aza/veh), C12orf56 (ProbeSet 11735607_a_at) / Fold change (ACY-1035/veh), C12orf56 (ProbeSet 11735607_a_at) / Fold change (Aza/veh), FGFR1OP (ProbeSet 11751329_s_at) / Fold change (ACY-1035/veh), FGFR1OP (ProbeSet 11751329_s_at) / Fold change (Aza/veh), VPS36 (ProbeSet 11739960_a_at) / Fold change (ACY-1035/veh), VPS36 (ProbeSet 11739960_a_at) / RFU SYPL1 (11715823_x_at) / Fold change /veh SYPL1 (11715823_x_at) / RFU IGFBP7 (11715501_s_at) / Fold change /veh IGFBP7 (11715501_s_at) / RFU REEP3 (11722064_at) / Fold change /veh REEP3 (11722064_at) / RFU IGLL1 (11728026_x_at) / Fold change /veh IGLL1 (11728026_x_at): dose or concentration left out as unconfirmed
Details: MV-4-11 cells, 48 hours

With `Nc1ccc(-c2cccs2)cc1NC(=O)c1ccc2c(c1)cc(C1CC1)n2CCN1CCOCC1` [ACY-1035] as the compound, how does the “RFU KRT8 (11758183_x_at)” value read?
Its value is 18.67 RFU.
